Results on one compound are retold here after patent US8889650B2, “Antimelancholic medicine prepared with jujube camp materials” (Beijing Wonner Biotech, Ltd. Co., priority 2007, dated 2014).

The subject of experiment [1] is ICR mice. As to the kind of experiment: Mouse tail-hanging experiment. It is filed as in vivo. An excerpt: Experiment 1: The Influence of Embodiment 3 in the Mouse Tail-Hanging Experiment 1.1 Experimental animals: ICR mice, male, 22.0±2 g of body weight, secondary, were provided by the Experimental Animal Science Department of Capital Medical University, Beijing. 1.2 Experiment pharmaceuticals: The pharmaceutical of Embodiment 3 was provided by Beijing Wonner Biotech. Ltd. Co., and Paroxetine (Paxil) was the product of Zhong Mei Tianjin Smith Kline pharmaceuticals Co. Ltd. 1.4 Dose designs: 1. High dose of Embodiment 3 (5 mg/kg/d); 2. middle dose of Embodiment 3 (2.5 mg/kg/d); and 3. low dose of Embodiment 3 (1.25 mg/kg/d). 1.5.1 Group division and administration of drug: The mice were grouped randomly, with 10 mice per group. 1. High dose of Embodiment 3 (5 mg/kg, per oral (P.O.), administered for 7 days); 2. middle dose of Embodiment 3 (2.5 mg/kg, P.O., administered for 7 days); 3. low dose of Embodiment 3 (1.25 mg/kg, P.O., administered for 7 days); 4. Paroxetine (3 mg/kg, P.O., administered for 7 days); and 5. physiological saline (P.O.). After 1 hour of the last drug administration, the mouse tail-hanging experiment was proceeded. […] The time of non-movement of the mouse for the last 5 minutes was recorded. 1.5.3 Statistic calculation: The experimental data are represented as X±SD , and the experimental result was calculated as analysis of variance (ANOVA) by SPSS 11.5 statistic software.

For experiment [2], the system named is ICR mice. As to the kind of experiment: Mouse swimming by compulsion experiment. The class given is in vivo. An excerpt: Experiment 2: The Influence of Embodiment 3 in the Mouse Swimming by Compulsion Experiment 2.1 Experimental animals: ICR mice, male, 22.0±2 g body weight, secondary, were provided by the Experimental Animal Science Department of Capital Medical University, Beijing. 2.2 Experiment pharmaceuticals: The pharmaceutical of Embodiment 3 was provided by Beijing Wonner Biotech. Ltd. Co., and Paroxetine (Paxil) was the product of Zhong Mei Tianjin Smith Kline pharmaceuticals Co. Ltd. 2.4 Dose designs: 1. High dose of Embodiment 3 (5 mg/kg/d); 2. middle dose of Embodiment 3 (2.5 mg/kg/d); and 3. low dose of Embodiment 3 (1.25 mg/kg/d). 2.5.1 Group division and administration of drug: The mice were grouped randomly, with 10 mice per group. 1. High dose of Embodiment 3 (5 mg/kg, P.O., administered for 7 days); 2. middle dose of Embodiment 3 (2.5 mg/kg, P.O., administered for 7 days); 3. low dose of Embodiment 3 (1.25 mg/kg, P.O., administered for 7 days); 4. Paroxetine (3 mg/kg, P.O., administered for 7 days); and 5. physiological saline (P.O.). […] The accumulative time of non-movement of the mouse in the water for the last 5 minutes was recorded. 2.5.3 Statistic calculation: The experimental data are represented as X±SD, and the experimental result was calculated as ANOVA by SPSS 11.5 statistic software.

Consider `Fc1ccc([C@@H]2CCNC[C@H]2COc2ccc3c(c2)OCO3)cc1` [Paroxetine], for which the Time of non-movement in the experiment on ICR mice [1] (Paroxetine 3 mg/kg P.O. for 7 days, tail hung 6 min, last 5 min recorded, 1 hour after last administration, X±SD) turned out to be 67.59 ± 39.09 s. In addition, the “Effect on time of non-movement after the mouse's tail was hung (conclusion)” value in the experiment with ICR mice [1] (high and middle doses of Embodiment 3, Paroxetine, significant in comparison with the physiological saline control) was “decreased the time of non-movement”. The “Effect on time of non-movement in the mouse swimming by compulsion test (conclusion)” value in the experiment with ICR mice [2] (high dose of Embodiment 3, Paroxetine) was “decreased the time of non-movement”. Besides, the immobility time with ICR mice [2] (table title: time of non-movement in swimming by compulsion, Paroxetine 3 mg/kg P.O. for 7 days, 25° C. water, last 5 minutes, X±SD) is 83.4 ± 40.7 s.
